Measured values: US20240390349A1, “DOSING REGIMEN OF CAPSID INHIBITOR” (priority 2023, published 2024)
Where two headings read alike, the source gives them in different places.

Experiments:
HIV-1 (MT-4 cells) = test: Inhibitory quotient 4 (4-fold in vitro protein-adjusted 95% effective concentration, MT-4 cells); format: cell-based; details: 4-fold in vitro protein binding-adjusted 95% effective concentration
[1] = LEN plasma concentrations during oral bridging period, CALIBRATE (Phase 2, ARV-naive PWH); format: in vivo; details: for concentration at 1 day / concentration at 10 week / concentration at 20 week / concentration at 30 week: human, plasma, 300 mg
From the text: The objective of this study was to evaluate the pharmacokinetics (PK) of LEN during oral bridging period (OBP) to assess the adequacy of 300-mg PO once-weekly (QW) regimen for maintaining therapeutic concentrations between missed SC LEN doses. During OBP, sparse PK samples were collected at the start of OBP and every ˜10-12 weeks (without regard to a prespecified time since dose) until SC LEN was resumed. LEN plasma concentrations were summarized during OBP in the CAPELLA (N=57) and CALIBRATE (N=82) studies.
This Example describes a Phase 2, randomized, open-label, active-controlled, multicenter study. Participants in Treatment Groups 1 and 2 required oral bridging following a clinical hold imposed by the Food & Drug Administration on injectable LEN as the SC injection of LEN could not be administered within the protocol visit window. An Oral Bridging visit was completed every 10 to 12 weeks. Participants had to have met all of the inclusion criteria and none of the exclusion criteria to be included in the study.
Participants in Treatment Groups 1 and 2 required oral weekly bridging when SC injection of LEN could not be administered due to the LEN clinical hold. • If 26 to 28 weeks elapsed since the last SC injection and if clinically appropriate to continue LEN, oral LEN 300 mg (1 tablet) once a week was started at oral bridging visits and continued weekly dosing on the same day of the week. • If more than 28 weeks elapsed since the last SC injection and if clinically appropriate to continue LEN, the oral lead-in was restarted at the oral bridging visit and the participant continued oral weekly dosing on the same day of the week, until SC LEN was administered, as shown in Table 9. • Participants continued receiving oral weekly LEN 300 mg until they received their next SC LEN injection. • Oral bridging visits were completed every 10-12 weeks. Additional visits during the oral weekly administration were conducted perd investigator's discretion.

[2] = Exposure-response analyses for efficacy and safety (PopPK-derived exposures); format: in vivo, human
Procedure: Exposure-response relationships for LEN were evaluated in HTE PWH with HIV-1 RNA<50 copies/mL at the oral bridging baseline in the Phase 2/3 study described in Example 4, using LEN exposure parameters (Ctrough, Cavg, and Cmax) derived from PopPK modeling.
Exposure-safety relationships for LEN were evaluated in the HTE PWH studies described in Example 4 (N=55), and in treatment-naive PWH in the study described in Example 5 (N=82) who received the oral bridging LEN regimen. Exposure-safety evaluations used LEN exposure metrics (Cavg, Ctrough, and Cmax) derived from PopPK analysis and the 5 most common treatment-emergent adverse events (TEAEs) were evaluated in relation to presence/absence in the LEN group across the entire oral bridging period in the two studies separately and combined (excluding infections and infestations AEs and injection site reactions).

HIV-1 = test: Efficacy of oral bridging (HIV-1 RNA, CD4), CAPELLA; format: in vivo, human; details: for Percentage who maintained HIV-1 RNA<50 copies/mL: OB baseline HIV-1 RNA<50, Missing=Failure; for Proportion of participants with HIV-1 RNA<50 copies/mL: suppressed at OB baseline
From the text: This Example describes analysis of oral LEN bridging administered during a Phase 2/3, global, randomized, placebo-controlled multicenter study of lenacapavir (LEN) together with an optimized background regimen (OBR) in people with HIV (PWH) with multidrug resistance (MDR) (to […] antiretroviral (ARV) medications from each of ≥3 of the 4 main classes) and who are failing their current regimen (defined as plasma HIV-1 RNA≥400 copies/mL).
This Example describes a Phase 2/3, global, randomized, placebo-controlled multicenter study of LEN together with an OBR in PWH with MDR (to ≥2 ARV medications from each of ≥3 of the 4 main classes) and who are failing their current regimen (defined as plasma HIV-1 RNA≥400 copies/mL). Participants required oral bridging if an SC injection of LEN was not administered within the protocol visit window.
Participants were enrolled in either of the following two cohorts: • Cohort 1: Randomized in a 2:1 ratio to receive oral LEN or placebo for 14 days starting on Day 1, while they continued their existing regimen; or • Cohort 2: Enrolled to receive oral LEN together with an OBR.

[3] = SC LEN total, SC LEN resumption visit
[4] = Treatment Group 1, SC LEN resumption visit
[5] = Treatment Group 2, SC LEN resumption visit

## CC(C)(C#Cc1ccc(-c2ccc(Cl)c3c(NS(C)(=O)=O)nn(CC(F)(F)F)c23)c([C@H](Cc2cc(F)cc(F)c2)NC(=O)Cn2nc(C(F)(F)F)c3c2C(F)(F)[C@@H]2C[C@H]32)n1)S(C)(=O)=O [LEN, N—((S)-1-(3-(4-chloro-3-(methylsulfonamido)-1-(2,2,2-trifluoroethyl)-1H-indazol-7-yl)-6-(3-methyl-3-(methylsulfonyl)but-1-yn-1-yl)pyridin-2-yl)-2-(3,5-difluorophenyl)ethyl)-2-((3bS,4aR)-5,5-difluoro-3-(trifluoromethyl)-3b,4,4a,5-tetrahydro-1H-cyclopropa [3,4]cyclopenta [1,2-c]pyrazol-1-yl) acetamide]
HIV-1 (MT-4 cells)
  Plasma concentration corresponding to inhibitory quotient 4 (IQ4): 15.5 ng/mL
[1]; SC LEN total (Groups 1+2), oral LEN 300 mg QW, Day 1
  Mean LEN plasma concentration: 27.8 (47.4) ng/mL
[1]; [3]
  Lower 90% CI of Concentration: 43.6 ng/mL
  Mean LEN plasma concentration: 50.7 ng/mL
[1]; SC LEN total, Week 10
  Mean LEN plasma concentration: 54.9 (70.8) ng/mL
[1]; SC LEN total, Week 20
  Mean LEN plasma concentration: 52.5 (77.7) ng/mL
[1]; SC LEN total, Week 30
  Mean LEN plasma concentration: 50.1 (62.3) ng/mL
[1]; Treatment Group 1 (SC LEN + [DVY→TAF]), Day 1
  Mean LEN plasma concentration: 28.8 (47.7) ng/mL
[1]; [4]
  Lower 90% CI of Concentration: 38.6 ng/mL
  Mean LEN plasma concentration: 49.4 ng/mL
[1]; Treatment Group 1, Week 10
  Mean LEN plasma concentration: 50.9 (67.0) ng/mL
[1]; Treatment Group 1, Week 20
  Mean LEN plasma concentration: 53.1 (84.5) ng/mL
[1]; Treatment Group 1, Week 30
  Mean LEN plasma concentration: 43.7 (74.7) ng/mL
[1]; Treatment Group 2 (SC LEN + [DVY→BIC]), Day 1
  Mean LEN plasma concentration: 26.7 (47.3) ng/mL
[1]; [5]
  Lower 90% CI of Concentration: 42.7 ng/mL
  Mean LEN plasma concentration: 52.2 ng/mL
[1]; Treatment Group 2, Week 10
  Mean LEN plasma concentration: 59.3 (73.6) ng/mL
[1]; Treatment Group 2, Week 20
  Mean LEN plasma concentration: 51.9 (70.2) ng/mL
[1]; Treatment Group 2, Week 30
  Mean LEN plasma concentration: 56.5 (62.5) ng/mL
[1]; oral, SC LEN total (Groups 1+2), oral LEN 300 mg QW, Day 1, read-out: Mean LEN plasma concentration
  concentration at 1 day: 27.8 ng/mL
[1]; oral, Treatment Group 1, Day 1, read-out: Lower 90% CI of Concentration
  concentration at 1 day: 25.2 ng/mL
[1]; oral, Treatment Group 1, Week 10, read-out: Lower 90% CI of Concentration
  concentration at 10 week: 41.1 ng/mL
[1]; oral, Treatment Group 1, Week 10, read-out: Mean LEN plasma concentration
  concentration at 10 week: 50.9 ng/mL
[1]; oral, Treatment Group 1, Week 20, read-out: Lower 90% CI of Concentration
  concentration at 20 week: 39.6 ng/mL
[1]; oral, Treatment Group 1, Week 20, read-out: Mean LEN plasma concentration
  concentration at 20 week: 53.1 ng/mL
[1]; oral, Treatment Group 1, Week 30, read-out: Mean LEN plasma concentration
  concentration at 30 week: 43.7 ng/mL
[1]; oral, Treatment Group 2, Day 1, read-out: Lower 90% CI of Concentration
  concentration at 1 day: 23 ng/mL
[1]; oral, Treatment Group 2, Week 10, read-out: Lower 90% CI of Concentration
  concentration at 10 week: 46.4 ng/mL
[1]; oral, Treatment Group 2, Week 10, read-out: Mean LEN plasma concentration
  concentration at 10 week: 59.3 ng/mL
[1]; oral, Treatment Group 2, Week 20, read-out: Lower 90% CI of Concentration
  concentration at 20 week: 40.2 ng/mL
[1]; oral, Treatment Group 2, Week 20, read-out: Mean LEN plasma concentration
  concentration at 20 week: 51.9 ng/mL
[1]; oral, Treatment Group 2, Week 30, read-out: Mean LEN plasma concentration
  concentration at 30 week: 56.5 ng/mL
[1]; sc, SC LEN total, Day 1, read-out: Lower 90% CI of Concentration
  concentration at 1 day: 25.3 ng/mL
[1]; sc, SC LEN total, Week 10, read-out: Lower 90% CI of Concentration
  concentration at 10 week: 47.1 ng/mL
[1]; sc, SC LEN total, Week 10, read-out: Mean LEN plasma concentration
  concentration at 10 week: 54.9 ng/mL
[1]; sc, SC LEN total, Week 20, read-out: Lower 90% CI of Concentration
  concentration at 20 week: 43.7 ng/mL
[1]; sc, SC LEN total, Week 20, read-out: Mean LEN plasma concentration
  concentration at 20 week: 52.5 ng/mL
[1]; sc, SC LEN total, Week 30, read-out: Lower 90% CI of Concentration
  concentration at 30 week: 24.4 ng/mL
[1]; sc, SC LEN total, Week 30, read-out: Mean LEN plasma concentration
  concentration at 30 week: 50.1 ng/mL
[1]; sc, Treatment Group 1 (SC LEN + [DVY→TAF]), Day 1, read-out: Mean LEN plasma concentration
  concentration at 1 day: 28.8 ng/mL
[1]; sc, Treatment Group 2 (SC LEN + [DVY→BIC]), Day 1, read-out: Mean LEN plasma concentration
  concentration at 1 day: 26.7 ng/mL
[2]; Examples 4 (N=55) and 5 (N=82), separately and combined
  Exposure-safety relationship (Cavg, Ctrough, Cmax vs common AEs): lack of association between LEN exposure from oral bridging and the incidence of common AEs
[2]; HTE PWH (Example 4)
  Exposure-efficacy relationship (post hoc Ctrough vs HIV-1 RNA <50 or ≥50 copies/mL): No trend in post hoc Ctrough was observed
[2]; HTE PWH with HIV-1 RNA<50 at OB baseline (Example 4)
  Participants with HIV-1 RNA<50 copies/mL at the time SC LEN was resumed: 39 of 40
HIV-1
  CD4 count and CD4% during oral bridging (in words): continued to increase from oral bridging baseline
  Mean (SD) oral bridging baseline CD4 cell count: 356 (261.1) cells/μL
  Mean oral bridging baseline CD4 percentage: 17.0%
HIV-1; Week 10
  Percentage who maintained HIV-1 RNA<50 copies/mL: 97.8%
  Mean (SD) change from oral bridging baseline in CD4 cell count: −16 (114.2) cells/μL
  Mean change from oral bridging baseline in CD4 percentage: 0.2%
HIV-1; Week 20
  Percentage who maintained HIV-1 RNA<50 copies/mL: 90.9%
  HIV-1 RNA of the 1 participant who did not maintain <50 copies/mL: 57 copies/mL
  Mean (SD) change from oral bridging baseline in CD4 cell count: 12 (71.8) cells/μL
  Mean change from oral bridging baseline in CD4 percentage: 1.0%
HIV-1; OB baseline HIV-1 RNA<50, Week 10
  Mean (SD) change from oral bridging baseline in HIV-1 RNA: 0.00 (0.250) log10 copies/mL
HIV-1; OB baseline HIV-1 RNA<50, Week 20
  Mean (SD) change from oral bridging baseline in HIV-1 RNA: −0.01 (0.096) log10 copies/mL
HIV-1; OB baseline HIV-1 RNA<50 copies/mL
  Mean (SD) baseline HIV-1 RNA: 1.34 (0.121) log10 copies/mL
HIV-1; OB baseline HIV-1 RNA≥50, Missing=Excluded, Week 10
  Percentage who achieved HIV-1 RNA<50 copies/mL: 27.3%
HIV-1; OB baseline HIV-1 RNA≥50, Missing=Excluded, Week 20
  Percentage who achieved HIV-1 RNA<50 copies/mL: 50.0%
HIV-1; OB baseline HIV-1 RNA≥50, Missing=Failure, Week 10
  Percentage who achieved HIV-1 RNA<50 copies/mL: 27.3%
HIV-1; OB baseline HIV-1 RNA≥50, Missing=Failure, Week 20
  Percentage who achieved HIV-1 RNA<50 copies/mL: 40.0%
HIV-1; OB baseline HIV-1 RNA≥50, Week 10
  Mean (SD) change from oral bridging baseline in HIV-1 RNA: −0.58 (1.188) log10 copies/mL
HIV-1; OB baseline HIV-1 RNA≥50, Week 20
  Mean (SD) change from oral bridging baseline in HIV-1 RNA: −1.05 (0.867) log10 copies/mL
HIV-1; OB baseline HIV-1 RNA≥50 copies/mL
  Mean (SD) baseline HIV-1 RNA: 3.43 (1.035) log10 copies/mL
HIV-1; Week 10, missed 2 nonconsecutive oral doses, N74D
  HIV-1 RNA of the 1 participant who did not maintain <50 copies/mL: 920 copies/mL
HIV-1; all who received oral bridging
  Mean (SD) oral bridging baseline HIV-1 RNA: 1.74 (0.947) log10 copies/mL
HIV-1; all who received oral bridging, Missing=Excluded, Week 10
  Percentage of participants with HIV-1 RNA<50 copies/mL: 83.9%
HIV-1; all who received oral bridging, Missing=Excluded, Week 20
  Percentage of participants with HIV-1 RNA<50 copies/mL: 91.4%
HIV-1; all who received oral bridging, Missing=Failure, Week 10
  Percentage of participants with HIV-1 RNA<50 copies/mL: 83.9%
HIV-1; all who received oral bridging, Missing=Failure, Week 20
  Percentage of participants with HIV-1 RNA<50 copies/mL: 84.2%
HIV-1; all who received oral bridging, Week 10
  Mean (SD) change from oral bridging baseline in HIV-1 RNA: -0.11 (0.597) log10 copies/mL
HIV-1; all who received oral bridging, Week 20
  Mean (SD) change from oral bridging baseline in HIV-1 RNA: −0.16 (0.476) log10 copies/mL
HIV-1; majority of participants suppressed at OB baseline
  Virologic suppression during oral bridging (in words): remained virologically suppressed
HIV-1; Missing=Excluded, OB Baseline
  Proportion of participants with HIV-1 RNA<50 copies/mL: 46/46 (100) %
HIV-1; Missing=Excluded, OB Week 30
  Proportion of participants with HIV-1 RNA<50 copies/mL: 10/10 (100) %
